The text below walks through data of patent US20140303152A1, “BENZOTHIAZINETHIONE DERIVATIVES AND PREPARATION METHODS AND USES THEREOF” (SICHUAN UNIVERSITY, priority 2011, published 2014).

Series [1] deals with Mycobacterium tuberculosis (H37Ra). Put plainly: In vitro inhibition test on Mycobacterium tuberculosis (H37Ra). The format is cell-based.
Series [2] deals with mycobacterium tuberculosis H37Rv. Description: In vitro inhibition test on Mycobacterium tuberculosis (H37Rv). In kind it is cell-based. To be noted: for MIC99 / MIC90: Mycobacterium tuberculosis; for MIC99: 264 h; for inhibitory effects on mycobacterium tuberculosis (H37Rv): result in words.
Series [3] deals with 293 cells. Put plainly: Cytotoxicity test (MTT method). The format is cell-based. The conditions noted are these: Homo sapiens. (In general: Formazan colour is commonly taken as a measure of viable cells.)
Series [4] is described as follows: Acute toxicity test of compound If, blood biochemical detection. In kind it is in vivo. The arrangement: Blood urea nitrogen / Total cholesterol / Creatine kinase / Creatinine / Blood glucose / Triglyceride / Total bilirubin / Alanine aminotransferase / Aspartate aminotransferase: unit not given here. The procedure: • 1. Experimental method, 1) If, intraperitoneal suspension, at dose of 2.5 g/kg; 2) adjuvant: 1% sodium carboxymethylcellulose (CMC-Na), 1% tween-80; 3) 10 BABL/C male and female mice, 6-8 weeks old, and weight of 20±2 g. The 10 mice were randomly divided into 2 groups, 5 mice for each group, and a solvent control group is set. Single intraperitoneal injection of 2.5 g/kg was given to the (1) drug group and (2) solvent control group within 24 h; physical signs, behavioral activities, glandular secretion, breath, stool, genitals, death and other poisoning manifestations of the mice were constantly observed every 4 h after administration, and the mice were killed after observation for 24 h, 5) blood was taken from eyeballs, and then the mice were killed, 800 μl whole blood was taken, centrifuged at 1300 r/min for 15 min, and 200 μl supernatant serum was taken for blood biochemical detection, including the following evaluation indicators: aspartate aminotransferase (AST), alanine aminotransferase (ALT), creatine kinase (CK), alkaline phosphatase (ALP), blood urea nitrogen (BUN), total protein (TP), albumin (Alb), blood glucose (GLU), total bilirubin (T-BIL), creatinine (Crea), total cholesterol (Chol) and triglyceride (TG), with 12 items in total. • 2.

The test system of series [5] is Bacillus Calmette Guerin (BCG). In kind it is in vivo, BABL/C mice. To be noted: for Colony count results after treatment for 28 days (spleens and lungs): BCG-infected mice, FIG. 1; for Lung pathological examination, anti-BCG infection treatment effects: HE staining, FIG. 2.
[6] abbreviates: H37Rv, generally observed 11 days after inoculation, read-out: MIC99.
The mark [7] stands for this setting: H37Rv, generally observed 5-7 days after inoculation, read-out: MIC90.
[8] abbreviates: HEK293, 293 cells, MTT, 48 h, read-out: IC50.
The mark [9] stands for this setting: serum of individual mice 6-10, If 2.5 g/kg i.p., 24 h.
Setting [10] is: high dose group, 75 mg/kg i.p. once every day.
[11] abbreviates: low dose group, 25 mg/kg i.p. once every day.

≈ marks a conversion by molar mass, not a printed value. Where “and” joins values, the source holds several entries; their conditions need not be identical. Equal values may be shown once. Read-outs that look alike come from different tables or passages of the source.

A word on the IC90: it is the concentration needed for an effect of 90%. A word on the MIC99: it is the lowest concentration that inhibits either 99% of growth or 99% of the strains tested, depending on the study. As usually defined, the MIC90 is the lowest concentration that inhibits either 90% of growth or 90% of the strains tested, depending on the study. As a reminder, the IC50 is the midpoint of a concentration-inhibition curve. In turn, `O=[N+]([O-])c1cc(C(F)(F)F)cc2c(=S)nc(N3CCC4(CC3)OCCO4)sc12` [Compound If, 8-nitro-2-(1,4-dio-8-aza[4.5]dec-8-yl)-6-(trifluoromethyl)-4H-benzo[e][1,3]thiazine-4-thione] displayed an IC90 in series [1] of 0.1 µM. The MIC99 in series [2] (setting [6]) came out at 0.0312 µg/mL (≈ 0.0721 µM). The MIC90 in series [2] (setting [7]) stood at 0.0312 µg/mL (≈ 0.0721 µM). Further, the “inhibitory effects on mycobacterium tuberculosis (H37Rv)” value (shortened to “inhibitory effects”) in series [2] is given as “equivalent to or even better than those of isoniazide”. In addition, the IC50 in series [3] (setting [8]) is > 500 µM. Further, the acute toxicity entry in series [4] (2.5 g/kg single intraperitoneal injection, mice, observation 24 h) is “no obvious acute toxicity”. Moreover, in series [4] (setting [9]), the Alanine aminotransferase was 10 and 16 (2×) and 12 and 11; the Albumin is 31.5 and 34.0 and 33.1 and 33.4 and 32.2; the Alkaline phosphatase is 166 and 134 and 156 and 175 and 165; the Aspartate aminotransferase is 145 and 148 and 149 and 156 and 169. Also, in series [4] (setting [9]), the Blood glucose was 6.3 and 4.3 and 4.9 and 4.5 and 5.1; the Blood urea nitrogen is 6.7 and 5.5 and 6.3 and 8.9 and 7.9; the Creatine kinase was 67 and 54 and 65 and 66 and 74; the Creatinine is −12 (2×) and −6 and −15 and −4. Further, in series [4] (setting [9]), the Total bilirubin was −0.6 (2×) and −0.5 and −1.2 and −0.4; the Total cholesterol was 3.35 and 3.21 and 3.34 and 3.53 and 3.14; the Total protein was 70.1 and 65.6 and 66.7 and 73.8 and 65.7; the Triglyceride is 2.10 and 1.80 and 2.53 and 2.17 and 2.24. Also, in series [5] (setting [10]), the “Colony count results after treatment for 28 days (spleens and lungs)” value is “slightly inferior to those of isoniazide, but obviously superior to those of the model group”; the “Lung pathological examination, anti-BCG infection treatment effects” value is “equivalent to those of the isoniazide (positive) control group”. In series [5] (setting [11]), the “Colony count results after treatment for 28 days (spleens and lungs)” value is “inhibitory effects on BCG growth of mouse spleens and lungs”; the “Lung pathological examination, anti-BCG infection treatment effects” value was “obviously superior to those of the solvent group, but inferior to the isoniazide (positive) control group and the If high dose group”.
Turning to `Fc1cc2c(=S)nc(Nc3ccc(Br)cn3)sc2c(F)c1F` [Ia, 2-(5-bromopyridine-2-amino)-6,7,8-trifluoro-4H-benzo[e][1,3]thiazine-4-thione], the MIC99 in series [2] (setting [6]) was found to be 16 µg/mL (≈ 39.6 µM). In series [2] (setting [7]), the MIC90 is 8 µg/mL (≈ 19.8 µM). For the same molecule, the IC50 in series [3] (setting [8]) is > 500 µM.
In series [2] (H37RV), `O=[N+]([O-])c1cc([N+](=O)[O-])c2sc(Nc3ccc(C(F)(F)F)cc3)nc(=S)c2c1` [Ib, 6,8-dinitro-2-(4-(trifluoromethyl)anilino)-4H-benzo[e][1,3]thiazine-4-thione] gave an MIC90 of 4 µg/mL (≈ 9.34 µM) and an MIC99 of 16 µg/mL (≈ 37.4 µM). Besides, the IC50 in series [3] (HEK293, 48 h) was > 500 µM.
For `CCNc1nc(=S)c2cc([N+](=O)[O-])cc([N+](=O)[O-])c2s1` [Ic, 2-(ethylamino)-6,8-dinitro-4H-benzo[e][1,3]thiazine-4-thione], in that order: 2 µg/mL (≈ 6.4 µM), 8 µg/mL (≈ 25.6 µM) and > 500 µM.
In series [2] (H37RV), `CNc1nc(=S)c2cc([N+](=O)[O-])cc([N+](=O)[O-])c2s1` [Id, 2-(methylamino)-6,8-dinitro-4H-benzo[e][1,3]thiazine-4-thione] registered an MIC90 of 2 µg/mL (≈ 6.7 µM) and an MIC99 of 4 µg/mL (≈ 13.4 µM). Further, the IC50 in series [3] (HEK293, 48 h) is > 500 µM.
On the same counts, the results for `O=[N+]([O-])c1cc([N+](=O)[O-])c2sc(N3CCCCC3)nc(=S)c2c1` [Ie, 6,8-dinitro-2-(piperidine-1-alkyl)-4H-benzo[e][1,3]thiazine-4-thione] are 1 µg/mL (≈ 2.84 µM), 4 µg/mL (≈ 11.4 µM) and > 500 µM.
Turning to `O=[N+]([O-])c1cc([N+](=O)[O-])c2sc(N3CCOCC3)nc(=S)c2c1` [Ig, 2-morpholinyl-6,8-dinitro-4H-benzo[e][1,3]thiazine-4-thione], it took 0.8 µM to reach the 90% level in series [1] (IC90). In series [2] (H37RV), this molecule came in with an MIC90 of 0.0625 µg/mL (≈ 0.176 µM) and an MIC99 of 0.125 µg/mL (≈ 0.353 µM). The “inhibitory effects” value in series [2] was “equivalent to or even better than those of isoniazide”. Further, in series [3] (HEK293, 48 h), the IC50 was > 500 µM.
Molecule `O=[N+]([O-])c1cc(C(F)(F)F)cc2c(=S)nc(N3CCOCC3)sc12` [Ih, 2-morpholinyl-8-nitro-6-(trifluoromethyl)-4H-benzo[e][1,3]thiazine-4-thione] displayed an IC90 in series [1] of 0.8 µM. Besides, the MIC99 in series [2] (setting [6]) was found to be 0.0312 µg/mL (≈ 0.0828 µM). For the same molecule, the MIC90 in series [2] (setting [7]) is 0.0312 µg/mL (≈ 0.0828 µM). In series [2], the “inhibitory effects” value is on record as “equivalent to or even better than those of isoniazide”. The IC50 in series [3] (setting [8]) is > 500 µM.
Molecule `NNC(=O)c1ccncc1` [Isoniazide, reference compound] returned an IC90 in series [1] of 0.8 µM. In series [2] (setting [6]), the MIC99 stood at 0.0625 µg/mL (≈ 0.456 µM). In series [2] (setting [7]), the MIC90 was 0.0625 µg/mL (≈ 0.456 µM).
